ChEMBL document CHEMBL4680318, “(S)-Erypoegin K, an isoflavone isolated from Erythrina poeppigiana, is a novel inhibitor of topoisomerase IIα: Induction of G2 phase arrest in human gastric cancer cells” (Bioorg Med Chem, 2021)
Active and inactive are the calls of the source. The rule behind the calls is not given here.

Assays:
SF-268 = experiment: Growth inhibition of human SF-268 cells measured after 48 hrs by sulforhodamine B assay; type: functional
DMS-273 = experiment: Growth inhibition of human DMS-273 cells measured after 48 hrs by sulforhodamine B assay; type: functional
St-4 = experiment: Growth inhibition of human St-4 cells measured after 48 hrs by sulforhodamine B assay; type: functional
SF-295 = experiment: Growth inhibition of human SF-295 cells measured after 48 hrs by sulforhodamine B assay; type: functional
NCI-H226 = experiment: Growth inhibition of human NCI-H226 cells measured after 48 hrs by sulforhodamine B assay; type: functional
MKN-74 = experiment: Growth inhibition of human MKN-74 cells measured after 48 hrs by sulforhodamine B assay; type: functional
PC-3 = experiment: Growth inhibition of human PC-3 cells measured after 48 hrs by sulforhodamine B assay; type: functional
NCI-H460 = experiment: Growth inhibition of human NCI-H460 cells measured after 48 hrs by sulforhodamine B assay; type: functional
RXF 631 = experiment: Growth inhibition of human RXF 631 cells measured after 48 hrs by sulforhodamine B assay; type: functional
DMS-114 = experiment: Growth inhibition of human DMS-114 cells measured after 48 hrs by sulforhodamine B assay; type: functional
OVCAR-3 = experiment: Growth inhibition of human OVCAR-3 cells measured after 48 hrs by sulforhodamine B assay; type: functional
OVCAR-4 = experiment: Growth inhibition of human OVCAR-4 cells measured after 48 hrs by sulforhodamine B assay; type: functional
MKN-45 = experiment: Growth inhibition of human MKN-45 cells measured after 48 hrs by sulforhodamine B assay; type: functional
LOX IMVI = experiment: Growth inhibition of human LOX IMVI cells measured after 48 hrs by sulforhodamine B assay; type: functional
MDA-MB-231 = experiment: Growth inhibition of human MDA-MB-231 cells measured after 48 hrs by sulforhodamine B assay; type: functional
NCI-H522 = experiment: Growth inhibition of human NCI-H522 cells measured after 48 hrs by sulforhodamine B assay; type: functional
ACHN = experiment: Growth inhibition of human ACHN cells measured after 48 hrs by sulforhodamine B assay; type: functional
SNB-78 = experiment: Growth inhibition of human SNB-78 cells measured after 48 hrs by sulforhodamine B assay; type: functional
HCT-116 = experiment: Growth inhibition of human HCT-116 cells measured after 48 hrs by sulforhodamine B assay; type: functional
SF-539 = experiment: Growth inhibition of human SF-539 cells measured after 48 hrs by sulforhodamine B assay; type: functional
[1] = Growth inhibition of human HBC5 cells measured after 48 hrs by sulforhodamine B assay; type: functional
SK-OV-3 = experiment: Growth inhibition of human SK-OV-3 cells measured after 48 hrs by sulforhodamine B assay; type: functional
MKN-1 = experiment: Growth inhibition of human MKN-1 cells measured after 48 hrs by sulforhodamine B assay; type: functional
OVCAR-8 = experiment: Growth inhibition of human OVCAR-8 cells measured after 48 hrs by sulforhodamine B assay; type: functional
SNB-75 = experiment: Growth inhibition of human SNB-75 cells measured after 48 hrs by sulforhodamine B assay; type: functional
MKN-7 = experiment: Growth inhibition of human MKN-7 cells measured after 48 hrs by sulforhodamine B assay; type: functional
HCC 2998 = experiment: Growth inhibition of human HCC 2998 cells measured after 48 hrs by sulforhodamine B assay; type: functional
HCT-15 = experiment: Growth inhibition of human HCT-15 cells measured after 48 hrs by sulforhodamine B assay; type: functional
HT-29 = experiment: Growth inhibition of human HT-29 cells measured after 48 hrs by sulforhodamine B assay; type: functional
U-251 = experiment: Growth inhibition of human U-251 cells measured after 48 hrs by sulforhodamine B assay; type: functional
OVCAR-5 = experiment: Growth inhibition of human OVCAR-5 cells measured after 48 hrs by sulforhodamine B assay; type: functional
NCI-H23 = experiment: Growth inhibition of human NCI-H23 cells measured after 48 hrs by sulforhodamine B assay; type: functional
[2] = target: DNA topoisomerase 2-alpha (Homo sapiens) (UniProt P11388); experiment: Inhibition of human DNA topoisomerase 2alpha assessed as stabilization of DNA cleavage complex at 50 to 200 uM using supercoiled pSL1180 plasmid DNA as substrate measured after 30 mins by ethidium bromide staining-based UV imaging analysis; conditions: dose 50-200 µM
A549 = experiment: Growth inhibition of human A549 cells measured after 48 hrs by sulforhodamine B assay; type: functional
DU-145 = experiment: Growth inhibition of human DU-145 cells measured after 48 hrs by sulforhodamine B assay; type: functional
MKN-28 = experiment: Growth inhibition of human MKN-28 cells measured after 48 hrs by sulforhodamine B assay; type: functional
[3] = Growth inhibition of human BSY1 cells measured after 48 hrs by sulforhodamine B assay; type: functional; conditions: BSY-1
KM12 = experiment: Growth inhibition of human KM12 cells measured after 48 hrs by sulforhodamine B assay; type: functional
MCF7 = experiment: Growth inhibition of human MCF7 cells measured after 48 hrs by sulforhodamine B assay; type: functional
[4] = Growth inhibition of human HBC4 cells measured after 48 hrs by sulforhodamine B assay; type: functional
[5] = Toxicity in KSN/Slc nude mouse xenografted with human GCIY cells assessed as effect on body weight at 40 mg/kg, ip administered twice a week for 4 weeks starting from day 4 post inoculation; type: organism-based; conditions: in vivo, 672 h
GCIY = experiment: Antitumor activity against human GCIY cells xenografted in KSN/Slc nude mouse assessed as reduction in tumor size at 40 mg/kg, ip administered twice a week for 4 weeks starting from day 4 post inoculation by vernier caliper method; type: functional, organism-based

DNA topoisomerase 2-alpha (Homo sapiens), sequence (P11388 whole entry): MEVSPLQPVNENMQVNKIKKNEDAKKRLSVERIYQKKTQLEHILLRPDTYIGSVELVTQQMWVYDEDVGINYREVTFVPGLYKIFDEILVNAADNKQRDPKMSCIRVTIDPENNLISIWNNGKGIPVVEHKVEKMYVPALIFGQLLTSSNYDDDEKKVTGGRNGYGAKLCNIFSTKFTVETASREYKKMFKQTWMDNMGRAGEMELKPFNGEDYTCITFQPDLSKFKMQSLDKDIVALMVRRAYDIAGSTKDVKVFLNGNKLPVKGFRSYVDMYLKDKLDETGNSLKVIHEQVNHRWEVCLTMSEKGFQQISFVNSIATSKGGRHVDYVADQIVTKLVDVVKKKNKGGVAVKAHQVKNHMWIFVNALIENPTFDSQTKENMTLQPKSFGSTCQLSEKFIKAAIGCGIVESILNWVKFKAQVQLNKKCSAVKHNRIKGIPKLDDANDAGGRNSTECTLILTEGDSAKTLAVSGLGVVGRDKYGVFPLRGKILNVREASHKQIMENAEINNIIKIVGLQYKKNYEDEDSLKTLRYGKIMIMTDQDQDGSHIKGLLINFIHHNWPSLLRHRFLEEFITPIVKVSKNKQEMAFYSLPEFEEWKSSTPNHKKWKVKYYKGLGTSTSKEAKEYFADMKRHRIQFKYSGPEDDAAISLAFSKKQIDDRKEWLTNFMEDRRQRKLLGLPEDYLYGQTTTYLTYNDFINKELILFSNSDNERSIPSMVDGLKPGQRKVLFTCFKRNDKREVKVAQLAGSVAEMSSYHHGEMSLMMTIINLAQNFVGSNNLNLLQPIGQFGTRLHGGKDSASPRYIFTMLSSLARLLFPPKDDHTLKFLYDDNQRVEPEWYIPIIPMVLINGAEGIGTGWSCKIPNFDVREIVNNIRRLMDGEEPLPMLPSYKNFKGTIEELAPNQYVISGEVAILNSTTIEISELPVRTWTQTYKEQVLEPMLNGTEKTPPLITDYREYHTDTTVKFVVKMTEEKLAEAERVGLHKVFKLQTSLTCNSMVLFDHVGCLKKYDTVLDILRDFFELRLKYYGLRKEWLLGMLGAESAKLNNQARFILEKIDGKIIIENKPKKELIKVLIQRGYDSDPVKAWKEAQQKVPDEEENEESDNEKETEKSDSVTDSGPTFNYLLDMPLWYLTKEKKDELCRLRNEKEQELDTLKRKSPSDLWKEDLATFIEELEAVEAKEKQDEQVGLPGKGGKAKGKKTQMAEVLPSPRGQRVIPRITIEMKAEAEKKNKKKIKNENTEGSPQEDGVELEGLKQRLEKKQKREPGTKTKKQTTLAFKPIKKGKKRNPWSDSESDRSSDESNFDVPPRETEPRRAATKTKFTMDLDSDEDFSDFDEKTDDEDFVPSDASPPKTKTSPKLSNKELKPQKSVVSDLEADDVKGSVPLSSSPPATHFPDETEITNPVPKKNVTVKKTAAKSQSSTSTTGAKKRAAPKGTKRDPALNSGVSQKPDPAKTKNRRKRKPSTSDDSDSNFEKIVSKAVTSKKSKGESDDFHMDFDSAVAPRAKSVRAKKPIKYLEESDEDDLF

COc1cc([C@@H]2c3cc4c(cc3[C@@H](O[C@@H]3O[C@@H]5CO[C@@H](C)O[C@H]5[C@H](O)[C@H]3O)[C@H]3COC(=O)[C@H]23)OCO4)cc(OC)c1O [ETOPOSIDE]
GI50 (SF-268): 5.37 µM
GI50 (DMS-273): 1.74 µM
GI50 (St-4): 20.9 µM
GI50 (SF-295): 2.75 µM
GI50 (NCI-H226): 4.9 µM
GI50 (MKN-74): 49 µM
GI50 (PC-3): > 100 µM
GI50 (NCI-H460): 1.15 µM
GI50 (RXF 631): 12.3 µM
GI50 (DMS-114): 2.88 µM
GI50 (OVCAR-3): 23.4 µM
GI50 (OVCAR-4): 38.9 µM
GI50 (MKN-45): 7.94 µM
GI50 (LOX IMVI): 3.47 µM
GI50 (MDA-MB-231): 21.4 µM
GI50 (NCI-H522): 4.68 µM
GI50 (ACHN): 2.09 µM
GI50 (SNB-78): 44.7 µM
GI50 (HCT-116): 14.8 µM
GI50 (SF-539): 1.86 µM
GI50 [1]: 51.3 µM
GI50 (SK-OV-3): 3.98 µM
GI50 (MKN-1): 2.14 µM
GI50 (OVCAR-8): 6.76 µM
GI50 (SNB-75): 6.92 µM
GI50 (MKN-7): 25.7 µM
GI50 (HCC 2998): 5.62 µM
GI50 (HCT-15): 16.2 µM
GI50 (HT-29): 22.9 µM
GI50 (U-251): 2.34 µM
GI50 (OVCAR-5): 19.5 µM
GI50 (NCI-H23): 4.07 µM
inhibition [2]: Active
GI50 (A549): 2 µM
GI50 (DU-145): 2820 nM
GI50 (MKN-28): 21.4 µM
GI50 [3]: 5.37 µM
GI50 (KM12): 14.1 µM
GI50 (MCF7): 2.24 µM
GI50 [4]: 16.6 µM

O=c1c(-c2ccc(O)cc2)coc2cc(O)cc(O)c12 [GENISTEIN]
GI50 (SF-268): 30.2 µM
GI50 (DMS-273): 21.9 µM
GI50 (St-4): 46.8 µM
GI50 (SF-295): 28.8 µM
GI50 (NCI-H226): 27.5 µM
GI50 (MKN-74): 36.3 µM
GI50 (NCI-H460): 26.3 µM
GI50 (RXF 631): 40.7 µM
GI50 (DMS-114): 49 µM
GI50 (OVCAR-3): 31.6 µM
GI50 (OVCAR-4): 43.7 µM
GI50 (MKN-45): 32.4 µM
GI50 (LOX IMVI): 18.2 µM
GI50 (MDA-MB-231): 37.2 µM
GI50 (NCI-H522): 17.8 µM
GI50 (ACHN): 19.5 µM
GI50 (SNB-78): 38.9 µM
GI50 (HCT-116): 25.1 µM
GI50 (SF-539): 26.3 µM
GI50 [1]: 26.9 µM
GI50 (SK-OV-3): 89.1 µM
GI50 (MKN-1): 25.1 µM
GI50 (OVCAR-8): 35.5 µM
GI50 (SNB-75): 15.8 µM
GI50 (MKN-7): 30.2 µM
GI50 (HCC 2998): 45.7 µM
GI50 (HCT-15): 30.2 µM
GI50 (HT-29): 53.7 µM
GI50 (U-251): 42.7 µM
GI50 (OVCAR-5): 50.1 µM
GI50 (NCI-H23): 36.3 µM
GI50 (A549): 26.3 µM
GI50 (MKN-28): 39.8 µM
GI50 [3]: 43.7 µM
GI50 (KM12): 50.1 µM
GI50 (MCF7): 42.7 µM
GI50 [4]: 43.7 µM

O=c1[nH]cc(F)c(=O)[nH]1 [FLUOROURACIL]
Activity [5]: Non-Toxic
Activity (GCIY): Active

CC(C)(O)[C@H]1Cc2c(cc(O)c3c(=O)c(-c4ccc(O)cc4)coc23)O1
GI50 (SF-268): > 100 µM
GI50 (DMS-273): > 100 µM
GI50 (St-4): > 100 µM
GI50 (SF-295): 52.5 µM
GI50 (NCI-H226): > 100 µM
GI50 (MKN-74): > 100 µM
GI50 (PC-3): 91.2 µM
GI50 (NCI-H460): > 100 µM
GI50 (RXF 631): 85.1 µM
GI50 (DMS-114): > 100 µM
GI50 (OVCAR-3): > 100 µM
GI50 (OVCAR-4): > 100 µM
GI50 (MKN-45): > 100 µM
Activity [5]: Non-Toxic
GI50 (LOX IMVI): > 100 µM
GI50 (MDA-MB-231): 45.7 µM
GI50 (NCI-H522): 47.9 µM
GI50 (ACHN): > 100 µM
GI50 (SNB-78): > 100 µM
GI50 (HCT-116): > 100 µM
GI50 (SF-539): 53.7 µM
Activity (GCIY): inactive
GI50 [1]: > 100 µM
GI50 (SK-OV-3): 26.9 µM
GI50 (MKN-1): > 100 µM
GI50 (OVCAR-8): > 100 µM
GI50 (SNB-75): 16.6 µM
GI50 (MKN-7): > 100 µM
GI50 (HCC 2998): > 100 µM
GI50 (HCT-15): > 100 µM
GI50 (HT-29): > 100 µM
GI50 (U-251): > 100 µM
GI50 (OVCAR-5): > 100 µM
GI50 (NCI-H23): > 100 µM
GI50 (A549): > 100 µM
GI50 (DU-145): > 100000 nM
GI50 (MKN-28): > 100 µM
GI50 [3]: > 100 µM
GI50 (KM12): > 100 µM
GI50 (MCF7): 89.1 µM
GI50 [4]: > 100 µM
